Assay results as given in PMC4663518, “Cytotoxic Indole Alkaloids against Human Leukemia Cell Lines from the Toxic Plant Peganum harmala” (Toxins, 2015).

Assays:
U-937 cells [1] = test: MTT cytotoxicity assay, U-937; assay type: cell-based, human; conditions: Mean ± SD
Procedure: (§1) Cytotoxicity was measured by the MTT assay.

HL-60 cells = test: MTT cytotoxicity assay, HL-60; assay type: cell-based, human; conditions: Mean ± SD
Procedure: as §1

KG1 cells = test: MTT cytotoxicity assay, KG1; assay type: cell-based, human; conditions: Mean ± SD
Procedure: as §1

HEL cells = test: MTT cytotoxicity assay, HEL; assay type: cell-based, human; conditions: 48 h, Mean ± SD
Procedure: as §1

in vitro = conditions: human
Procedure: (§10) Meanwhile, the cytotoxicity against human embryonic kidney cells (HEK-293) was evaluated for their toxic selectivity.
(§11) Human leukemia cell lines (U-937, HL-60, KG1 and HEL) and human embryonic kidney cells (HEK-293) were purchased from American Type Culture Collection (ATCC) (Manassas, VA, USA). Cells were cultured in RPMI 1640 supplemented with 10% fetal bovine serum (Gibco Life Technologies, Grand Island, NY, USA), 50 U/mL penicillin and 100 μg/mL streptomycin and maintained in a humidified atmosphere containing 5% CO2 at 37 °C. Penicillin and streptomycin were purchased from Hyclone (Logan, UT, USA).
(§12) Cytotoxicity was measured by the MTT assay. Briefly, cells were cultured in RPMI 1640 supplemented with 10% fetal bovine serum, 10 mmol/L Hepes, 50 units/mL penicillin, 50 μg/mL streptomycin, and 100 μg /mL gentamicin and were maintained at 37 °C in 5% CO2. A total of 2.5 × 10^4 cells in growth media were placed in each well of a 96-well flat-bottom plate. After 12 h of incubation, the growth medium was replaced by media containing different concentrations of the test samples. Cytotoxicity was determined at 48 h from the MTT absorbance (490 nm) reading for each concentration compared to the control. At least three replications for each sample were used to determine the cytotoxicity.

U-937 cells [2] = test: MTT cell viability, genistein pretreatment plus HMC; assay type: cell-based, human; conditions: 10 µmol/L Genistein pretreatment 1 h, then 2.0 µmol/L HMC 48 h
Source text: (§2) Unusual activation of Ras/Raf/MAPK signaling pathway is one of main characteristic of human cancer. In this study, the Ras/Raf/MAPK pathway was investigated in HMC-induced U-937 cell apoptosis. Genistein, a broad-spectrum inhibitor of protein tyrosine kinases (PTKs), was used to detect the cell viability after HMC treatment. […] Moreover, the expressions of Ras/Raf/ERK in U-937 cells were detected after HMC treatment in different time courses.
(§3) Figure 3 Apoptosis via Ras/Raf/ERK signaling pathway in U-937 cells after HMC treatment. (A) Cell viability was assessed using MTT method in U-937 cells after pretreated by 10 µmol/L Genistein for 1 h, and then the cells were incubated without or with 2.0 µmol/L HMC for 48 h. […] Data are presented as means ± SEM of three independent tests. * p < 0.05 versus control, ** p < 0.01 versus control.

[3] = MTT cytotoxicity assay, HEK-293 (toxic selectivity); conditions: human, HEK-293 cells, IC50 HEK-293, MTT, Mean ± SD
Procedure: as §10, §11, §12

[4] = test system: human embryonic kidney cells HEK-293; test: as above; conditions: read-out: IC50 HEK-293; MTT, 48 h, Mean ± SD
Procedure: as §10, §11, §12

U-937 cells [5] = test: Hoechst 33258 staining, apoptotic morphology; assay type: cell-based, human; conditions: 2.0 μmol/L, 24 h
Source text: Based on the cytotoxic results, compound 8 (HMC) has pronounced cytotoxicity against human leukemia cells, especially to U-937 cells. Therefore, it was worthy of investigating the cytotoxic mechanism of HMC in U-937 cell death. To elucidate the characteristics of HMC-induced U-937 cells, morphologic changes were examined.
(§4) Figure 2 HMC initiated apoptosis in U-937 cells through mitochondrial and Caspase cascade. (A) Apoptotic U-937 cells were observed after the cells were stained by Hoechst 33258. (B) Mitochondrial transmembrane potential was reduced in U-937 cells stained by Rodamine123. […] (D–F) HMC impacted the mRNA levels and protein expressions of Bax and Bcl-2 in U-937 cells leading to the activation of caspase 3. Data are presented as means ± SD of three independent tests. * p < 0.05 versus control, ** p < 0.01 versus control.

U-937 cells [6] = test: Mitochondrial transmembrane potential, Rhodamine 123; assay type: cell-based, human; conditions: Rhodamine 123, compared with the control group
Source text: as §4
(§5) To make it clear whether HMC-induce apoptosis was related to mitochondrial function, mitochondrial transmembrane potential was assessed using Rhodamine 123. […] Meanwhile, the ATP level of mitochondria was measured in U-937 cells treated by HMC.

U-937 cells [7] = test: ATP luminescence level; assay type: cell-based, human; conditions: 2.0 μmol/L, 24 h
Procedure: as §5
ATP luminescence was detected according to the manufactured information to evaluate the mitochondrial damage after 2.0 µmol/L HMC insulting. U-937 cells were treated without or with HMC for 24 h. After incubation, equilibrate the plates and its contents at room temperature for 30 min. One hundred microliters of cell titer reagent was added to each well in a 96-well plate and the plate was shaken gently for 2 min to induce cell lysis. The plate was incubated at room temperature for 10 min to stabilize luminescent signal and then record luminescence.

Bax mRNA = test: RT-PCR Bax mRNA in U-937 cells; assay type: cell-based, human; conditions: 2.0 µmol/L, 24 h
Procedure: (§6) Since Bcl-2 family members were critical regulators of the mitochondrial pathway that induced intrinsic caspase activation, RT-PCR was applied to detect the mRNA level of Bax and Bcl-2 in HMC-treated U-937 cells. […] Meanwhile, Western blot analyses were carried out to observe the expressions of Bcl-2 and Bax.
(§7) Total RNA extraction for leukemia cells was performed by using Trizol method. U-937 cells were seeded in 6 well plates for 24 h, and then the cells were treated by 2.0 µmol/L HMC for another 24 h. After treatment, the cells were collected for RNA extraction. The forward and reversed primers of Bax were […] and […]. The forward and reversed primers of Bcl-2 were […] and […]. The forward and reversed primers of GAPDH were […] and […]. The reaction was conducted under the conditions with 94 °C for 30 s, 95 °C for 5 s, 62 °C for 30 s, 72 °C for 30 s for 30 cycles. Identity of the PCR-products was controlled by melting curve analysis. Standard curves were prepared from isolated PCR products by serial dilution. Data were normalized towards GAPDH expression and statistically analyzed.

Bcl-2 mRNA = test: RT-PCR Bcl-2 mRNA in U-937 cells; assay type: cell-based, human; conditions: 2.0 µmol/L, 24 h
Procedure: as §6, §7

Bax = test: Western blot Bax in U-937 cells; assay type: cell-based, human; conditions: 2.0 µmol/L, 24 h
Procedure: as §6
(§8) U-937 cells were treated with 2.0 µmol/L HMC for 0, 24 and 48 h, respectively. The whole cells were collected, and then the cell pellets were resuspended with RIPA buffer that contained a mixture of protease inhibitors at 4 °C for 30 min. After 14,000× g centrifugation for 15 min, the protein content of supernatant was determined by the Bio-Rad DC protein assay (Bio-Rad Laboratories, Hercules, CA, USA). […] Proteins were detected using primary antibodies, followed by HRP-conjugated secondary antibody. Labeling was detected using the ECL system (Amersham Biosciences Corp., Piscataway, NJ, USA).

Bcl-2 = test: Western blot Bcl-2 in U-937 cells; assay type: cell-based, human; conditions: 2.0 µmol/L, 24 h
Procedure: as §6, §8

Caspase 3 = Caspase 3 activation in U-937 cells; assay type: cell-based, human; conditions: 2.0 μmol/L, 24 h
Procedure: as §6, §8

Ras = test: Western blot Ras in U-937 cells; assay type: cell-based, human; conditions: 2.0 µmol/L, 0, 24 and 48 h
Source text: as §2, §3
(§9) U-937 cells were treated with 2.0 µmol/L HMC for 0, 24 and 48 h, respectively. […] After 14,000× g centrifugation for 15 min, the protein content of supernatant was determined by the Bio-Rad DC protein assay (Bio-Rad Laboratories, Hercules, CA, USA). […] Proteins were detected using primary antibodies, followed by HRP-conjugated secondary antibody. Labeling was detected using the ECL system (Amersham Biosciences Corp., Piscataway, NJ, USA).

p-Raf = test: Western blot p-Raf in U-937 cells; assay type: cell-based, human; conditions: 2.0 µmol/L, 0, 24 and 48 h
Source text: as §2, §3, §9

p-ERK1/2 = test: Western blot p-ERK1/2 in U-937 cells; assay type: cell-based, human; conditions: 2.0 µmol/L, 0, 24 and 48 h
Source text: as §2, §3, §9

total ERK = test: Western blot total ERK in U-937 cells; assay type: cell-based, human; conditions: 2.0 µmol/L, 0, 24 and 48 h
Source text: as §2, §3, §9

Row | Compound | IC50 (U-937 cells [1]; Homo sapiens, U-937, 48 h) [µM] | IC50 (HL-60 cells; Homo sapiens, HL-60, 48 h) [µM] | IC50 (KG1 cells; Homo sapiens, KG-1, 48 h) [µM] | IC50 (HEL cells; Homo sapiens, HEL) [µM] | IC50 at 48 h (in vitro) [µM] | other results
1 | N.N.[Cl][Pt][Cl] [Cisplatin, cisplatin, reference compound] |  |  |  |  |  | IC50 (U-937 cells [1]; 48 h): 6.3 ± 0.5 µM; IC50 (HL-60 cells; 48 h): 13.5 ± 0.4 µM; IC50 (KG1 cells; 48 h): 4.1 ± 0.3 µM; IC50 (HEL cells): 7.7 ± 0.2 µM
2 | CCc1cc2nccc3c4ccc(OC)cc4n(c1=O)c23 [Compound 11, luotonin C] | 49.6 ± 1.9 | 87.3 ± 3.7 | 113 ± 5.6 | 68.3 ± 3 | > 200 | 
3 | COc1ccc2c3c([nH]c2c1)-c1nc2ccccc2c(=O)n1CC3 [Compound 12, 11-methyoxyl-rutaecarpine] | 55.3 ± 1.7 | 93.8 ± 6.8 | 88.1 ± 3.7 | 121 ± 5.5 | > 200 | 
4 | O=c1c(-c2ccc(O)cc2)coc2cc(O)cc(O)c12 [genistein, Genistein] |  |  |  |  |  | cell viability after HMC co-incubation compared with HMC-treated only (U-937 cells [2]): significantly decrease
5 | COc1ccc2c(c1)NC(=O)[C@]2(O)CCNC(C)=O [Compound 3, (S)-3-hydroxy-3-(N-acetyl-2-aminoethyl)-6-methoxyindol-2-one] | 75.3 ± 2.8 | 36.2 ± 1.1 | > 200 | 55.3 ± 3.2 | 122 ± 5.7 | 
6 | COc1ccc2c(c1)[nH]c1c(C)nccc12 [Compound 5, harmine] | 23.1 ± 0.9 | 71.2 ± 3.3 | 62.7 ± 2.8 | 20.3 ± 1.1 |  | IC50 at 48 h [3]: > 200 µM
7 | COc1ccc2c([nH]c3c(C)nccc32)c1O[C@@H]1O[C@H](CO)[C@@H](O)[C@H](O)[C@H]1O [Compound 6, ruin] | 30.6 ± 1.2 | 60.7 ± 2.9 | 44.5 ± 2.1 | 71.6 ± 2.7 | > 200 | 
8 | harmol [Compound 4] |  |  |  |  |  | IC50 (U-937 cells [1]; 48 h): 46.1 ± 2 µM; IC50 (HL-60 cells; 48 h): 62 ± 2.8 µM; IC50 (KG1 cells; 48 h): 47.7 ± 2.3 µM; IC50 (HEL cells): 54.6 ± 2.3 µM; IC50 [4]: > 200 µM
9 | COc1ccc2c3c([nH]c2c1)C(C)=NCC3 [Compound 9, harmaline] | 10.6 ± 0.7 | 55.3 ± 2.4 | 46.8 ± 1.9 | 20.1 ± 1.2 |  | IC50 at 48 h [3]: 156 ± 7.2 µM
10 | C[C@@H]1O[C@@H](OC[C@H]2O[C@@H](OCCc3c[nH]c4ccccc34)[C@H](O)[C@@H](O)[C@@H]2O)[C@H](O)[C@H](O)[C@H]1O [Compound 2, 2-(indol-3-yl)ethyl-α-L-rhamnopyranosyl-(1 → 6)-β-D-glucopyranoside] | 80.2 ± 4.5 | 55.3 ± 3.4 | 60.2 ± 2.7 | 131 ± 4.9 | > 200 | 
11 | COC(=O)c1nccc2c1[nH]c1cc(OC)ccc12 [Compound 7, harmic acid methyl ester] | 22.3 ± 1.4 | 44.3 ± 2.1 | 56.8 ± 2.5 | 35.2 ± 2.8 | 164 ± 8.1 | 
12 | OC[C@H]1O[C@@H](OCCc2c[nH]c3ccccc23)[C@H](O)[C@@H](O)[C@@H]1O [Compound 1, 2-(indol-3-yl)ethyl-β-D-glucopyranoside] | 52.1 ± 2.6 | 78.9 ± 3.8 | 23.1 ± 1.4 | 121 ± 5.5 | > 200 | 
13 | COc1ccc2c3c([nH]c2c1)C=NCC3 [Compound 8, harmalacidine] | 3.1 ± 0.2 | 61.3 ± 2.8 | 32.6 ± 1.7 | 25.7 ± 1.1 |  | morphologic alterations of cell apoptosis (membrane blebbing, nuclear condensation, granular apoptotic bodies) (U-937 cells [5]): characteristic morphologic alterations of cell apoptosis were observed; mitochondrial transmembrane potential (U-937 cells [6]): obviously reduced; ATP level (U-937 cells [7]): reduce; Bax mRNA level (Bax mRNA): increase; Bcl-2 mRNA level (Bcl-2 mRNA): reduce; expression of pro-apoptotic Bax (Bax): began to increase; expression of anti-apoptotic Bcl-2 (Bcl-2): began to decrease; Caspase 3 activation (Caspase 3): activated; expression of Ras (Ras): down-regulate; expression of p-Raf (p-Raf): down-regulate; expression of p-ERK1/2 (p-ERK1/2): down-regulate; total ERK (total ERK): kept no change; IC50 at 48 h [3]: > 200 µM
14 | COc1ccc2c3c([nH]c2c1)C(C)=NCC3 [Compound 10, protonated harmaline] |  |  |  |  |  | IC50 (U-937 cells [1]; 48 h): 15.3 ± 0.7 µM; IC50 (HL-60 cells; 48 h): 45.7 ± 2.1 µM; IC50 (KG1 cells; 48 h): 56.9 ± 2.3 µM; IC50 (HEL cells): 21.2 ± 1.1 µM; IC50 [4]: 132 ± 4.6 µM
